Data: patent publication US11365192B2, “Pyridine compound substituted with azole” (TAISHO PHARMACEUTICAL CO., LTD., priority 2017, dated 2022)

Tests used:
human CYP4F22 = human CYP4F22 (Homo sapiens (Human), UniProt Q6NT55); assay: CYP4F22 selectivity test; assay type: biochemical; conditions: cell membrane fraction expressing human CYP4F22, 14 μM luciferine derivative, 50 minutes
Method: (1) CYP4F22 Selectivity Test for Each Compound of the Present Invention
(§1) The reaction solution containing each compound [final concentration of 100 mM KPO4 (pH 7.4), 14 μM luciferine derivative, and 1 mM NADPH] was added to a cell membrane fraction (30 μg/mL protein) in which human CYP4F22 had been expressed. Following this, the cell membrane fraction was left to stand at room temperature for 50 minutes to perform an enzymatic reaction. After the reaction, a luciferine detection reagent was added, and the luminescence value was measured using a plate reader. By using that value, the percent inhibition of the enzymatic reaction of CYP4F22(%) was calculated according to the equation described below, and the 50% inhibitory concentration (IC50 value) for each compound was calculated. Percent inhibition of CYP4F22 enzyme (%)=[1−(A−B)/(C−B)]*100
(§2) A: Luminescence value with addition of compound
(§3) B: Luminescence value without addition of compound and enzyme
(§4) C: Luminescence value without addition of compound

human CYP4V2 = human CYP4V2 (Homo sapiens (Human), UniProt Q6ZWL3); assay: CYP4V2 selectivity test; assay type: biochemical; conditions: cell membrane fraction expressing human CYP4V2, 7 μM luciferine derivative, 40 minutes
Sequence of human CYP4V2 (Q6ZWL3 whole entry): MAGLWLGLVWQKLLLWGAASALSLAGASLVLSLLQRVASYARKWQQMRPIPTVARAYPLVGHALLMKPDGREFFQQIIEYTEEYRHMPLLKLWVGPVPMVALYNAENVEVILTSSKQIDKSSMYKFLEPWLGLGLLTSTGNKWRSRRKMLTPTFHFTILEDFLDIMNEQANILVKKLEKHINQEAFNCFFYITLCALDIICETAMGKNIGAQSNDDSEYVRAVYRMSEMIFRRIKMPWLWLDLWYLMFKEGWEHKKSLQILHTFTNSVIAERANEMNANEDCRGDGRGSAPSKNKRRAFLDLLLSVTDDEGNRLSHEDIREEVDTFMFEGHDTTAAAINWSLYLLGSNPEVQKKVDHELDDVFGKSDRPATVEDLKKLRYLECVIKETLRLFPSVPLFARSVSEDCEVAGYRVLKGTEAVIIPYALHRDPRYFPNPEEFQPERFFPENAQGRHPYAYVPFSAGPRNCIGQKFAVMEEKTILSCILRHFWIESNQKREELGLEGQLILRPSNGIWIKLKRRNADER
Method: (3) CYP4V2 Selectivity Test for Each Compound of the Present Invention
as §1, with “7.4), 7” for “7.4), 14”, “fraction (38” for “fraction (30”, “human CYP4V2” for “human CYP4F22”, “for 40” for “for 50”, “of CYP4V2(%)” for “of CYP4F22(%)”, “of CYP4V2” for “of CYP4F22”
as §2, §3, §4

human CYP4A11 = human CYP4A11 (Homo sapiens (Human), UniProt Q02928); assay: Inhibition test against 20-HETE producing enzyme CYP4A11 (luciferine derivative, luminescence); assay type: biochemical
Sequence of human CYP4A11 (Q02928 5-519): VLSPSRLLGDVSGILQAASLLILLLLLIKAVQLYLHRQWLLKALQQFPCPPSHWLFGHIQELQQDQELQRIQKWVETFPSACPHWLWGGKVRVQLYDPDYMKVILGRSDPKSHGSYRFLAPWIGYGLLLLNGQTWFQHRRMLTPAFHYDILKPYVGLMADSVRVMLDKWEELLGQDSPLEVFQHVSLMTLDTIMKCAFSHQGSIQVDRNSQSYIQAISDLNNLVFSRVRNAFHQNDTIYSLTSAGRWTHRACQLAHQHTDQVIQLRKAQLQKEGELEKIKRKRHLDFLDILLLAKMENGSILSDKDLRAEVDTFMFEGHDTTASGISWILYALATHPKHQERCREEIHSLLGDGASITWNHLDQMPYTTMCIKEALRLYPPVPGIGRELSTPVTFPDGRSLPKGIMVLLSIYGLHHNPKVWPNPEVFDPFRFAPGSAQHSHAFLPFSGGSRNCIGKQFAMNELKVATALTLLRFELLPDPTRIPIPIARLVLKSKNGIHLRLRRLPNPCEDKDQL
Outline: (§5)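 E. coli membranes (100 μg/mL protein) expressing human enzyme, room temperature 60 min, luciferin-derivative luminescence; IC50 from % inhibition. CYP4F2: 50 mM KPO4 pH 7.4, 2.5 μM substrate, 1 mM NADPH. CYP4A11: 100 mM Tris-HCl pH 7.5, 60 μM substrate, NADP+/glucose 6-phosphate/G6PDH regenerating system, 3.3 mM MgCl2.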

[1] = molecular target: 20-HETE producing enzymes, human kidney microsome; assay: Inhibition test against 20-HETE producing enzymes using human kidney microsomes (LC-MS/MS); assay type: biochemical; conditions: for IC50: human kidney microsome 250 μg/mL protein, 20 μM arachidonic acid, 37° C. 45 minutes, LC-MS/MS; for inhibitory activities against 20-HETE producing enzymes compared to compound A and compound B: comparison with compound A and compound B of WO03/022821, human kidney microsomes
Method: (1) Inhibition Test for Each Compound of the Present Invention Against 20-HETE Producing Enzymes Using Human Kidney Microsomes
The reaction solution containing each compound [final concentration of 100 mM, KPO4 (pH 7.4), 20 μM Arachidonic acid, 4 mM NADPH] was added to the human kidney microsome (250 μg/mL protein). Following this, the microsome was left to stand at 37° C. for 45 minutes to perform 20-HETE producing reaction. After adding formic acid to stop the reaction, 9 times amount of acetonitrile was added, and deproteinization was carried out by centrifugation (1000 rpm, 4° C., 10 minutes). After that, the peak area value of 20-HETE was measured using a liquid chromatograph-tandem mass spectrometer (LC-MS/MS), and by using that value, the percent inhibition of 20-HETE producing enzyme (%) was calculated according to the equation described below, and the 50% inhibitory concentration (IC50 value) for each compound was calculated. Percent inhibition of 20-HETE producing enzyme (%)=[1−(A−B)/(C−B)]*100
A: Peak area value of 20-HETE/peak area value of internal standard substance with addition of compound
B: Peak area value of 20-HETE/peak area value of internal standard substance without addition of compound and NADPH
C: Peak area value of 20-HETE/peak area value of internal standard substance without addition of compound
(3) Inhibition Test for Compound a and Compound B Disclosed in WO03/022821 Against 20-HETE Producing Enzymes Using Human Kidney Microsomes
For compound A and compound B disclosed in WO03/022821, which have been described above, the 50% inhibitory concentration (IC50 value) against 20-HETE producing enzymes was calculated according to the method described in Test Example 2.
On the other hand, as described above, in Test Example 2, nonradioactive arachidonic acid was used as a substrate for 20-HETE producing reaction, and the amount of 20-HETE produced was measured using LC-MS/MS. In this case, the concentration of arachidonic acid, the substrate, is 20 μM.
In recent years, it is recommended that the substrate concentration for calculating the IC50 value be set at the Km value (Assay Guidance Manual, Sittampalam et. al. (URL: http://www.ncbi.nlm.nih.gov/books/NBK53196/)). According to this, in Test Example 2 described above, human kidney microsomes were used to calculate the Km value, and the calculated Km value of 20 μM was set as the concentration of the substrate, arachidonic acid.

human CYP4F2 = human CYP4F2 (Homo sapiens (Human), UniProt P78329); assay: Inhibition test against 20-HETE producing enzyme CYP4F2 (luciferine derivative, luminescence); assay type: biochemical
Sequence of human CYP4F2 (P78329 5-520): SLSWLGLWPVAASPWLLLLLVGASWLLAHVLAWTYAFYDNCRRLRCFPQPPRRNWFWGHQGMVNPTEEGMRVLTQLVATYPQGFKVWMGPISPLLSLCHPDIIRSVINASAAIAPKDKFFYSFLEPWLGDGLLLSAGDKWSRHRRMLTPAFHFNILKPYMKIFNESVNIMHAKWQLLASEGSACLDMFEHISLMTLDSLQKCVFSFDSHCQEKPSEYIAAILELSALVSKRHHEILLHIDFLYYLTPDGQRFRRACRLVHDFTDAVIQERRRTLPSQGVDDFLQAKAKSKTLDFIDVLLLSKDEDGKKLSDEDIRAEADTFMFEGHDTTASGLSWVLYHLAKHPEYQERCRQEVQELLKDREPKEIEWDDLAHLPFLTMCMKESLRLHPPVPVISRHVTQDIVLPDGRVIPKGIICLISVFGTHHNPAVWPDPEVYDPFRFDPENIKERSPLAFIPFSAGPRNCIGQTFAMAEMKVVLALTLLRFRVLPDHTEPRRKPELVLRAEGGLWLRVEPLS
Outline: as §5

[2] = Evaluation test for in vivo stability (half-life in plasma after intravenous administration to rats); parameters: species or system rats (Sprague-Dawley); conditions: rats (SD, male), 0.5 mg/kg, half-life in plasma from CL and Vdss
Method: (1) Evaluation Test for In Vivo Stability of Each Compound of the Present Invention
Each compound was dissolved in an aqueous solution of 10% HP-β-CD (0.5 mg/mL), and intravenously administered to rats (Sprague-Dawley (SD), male, 7-week-old, fasted, dose: 0.5 mg/kg). Blood was collected from the tail vein at each time of blood collection, and the plasma was collected by centrifugation. Quantitative analysis of each compound in plasma was performed using LC-MS/MS. Half-life in plasma (t1/2eff) was calculated from clearance (CL) and distribution volume (Vdss) calculated through noncompartmental analysis with Phoenix WinNonlin (Certara, L.P.), according to the equation described below. t1/2eff=LN(2)/(CL/Vdss)

[3] = human CYP4A11, luciferine derivative, luminescence
[4] = human CYP4F2, luciferine derivative, luminescence
[5] = E. coli membrane fraction expressing human CYP4A11, 60 μM luciferine derivative, room temperature 60 minutes
[6] = E. coli membrane fraction expressing human CYP4F2, 2.5 μM luciferine derivative, room temperature 60 minutes

Sequence of human CYP4F22 (Q6NT55 whole entry): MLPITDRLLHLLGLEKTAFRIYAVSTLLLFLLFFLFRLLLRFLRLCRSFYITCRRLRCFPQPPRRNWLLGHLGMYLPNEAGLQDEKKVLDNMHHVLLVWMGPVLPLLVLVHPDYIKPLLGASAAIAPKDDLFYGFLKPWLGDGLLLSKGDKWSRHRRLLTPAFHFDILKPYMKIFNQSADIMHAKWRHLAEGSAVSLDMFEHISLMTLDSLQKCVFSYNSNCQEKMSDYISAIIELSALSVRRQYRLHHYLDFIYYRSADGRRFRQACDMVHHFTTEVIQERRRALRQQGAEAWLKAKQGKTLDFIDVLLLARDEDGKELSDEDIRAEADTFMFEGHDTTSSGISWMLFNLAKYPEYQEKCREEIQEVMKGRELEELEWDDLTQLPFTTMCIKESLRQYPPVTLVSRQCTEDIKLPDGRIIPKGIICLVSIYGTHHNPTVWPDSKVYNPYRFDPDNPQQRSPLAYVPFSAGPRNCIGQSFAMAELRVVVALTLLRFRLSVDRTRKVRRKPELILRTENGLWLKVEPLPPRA

| Compound | IC50 (human CYP4F22) | IC50 (human CYP4V2) | IC50 (human CYP4A11; [3]) | IC50 [1] | IC50 (human CYP4F2; [4]) | t1/2eff [2] | IC50 (human CYP4A11; [5]) | inhibitory activities against 20-HETE producing enzymes compared to compound A and compound B [1] | IC50 (human CYP4F2; [6]) |
| --- | --- | --- | --- | --- | --- | --- | --- | --- | --- |
| O=C(O)C1CC1c1ccc(CCOc2ccc(-c3ccn[nH]3)nc2)c(F)c1 (single isomer, unassigned) [Example 71-18] | 1900 nM | 2100 nM | 110 nM | 6 nM | 83 nM | – | – | – | – |
| O=C(O)C1CC1c1cccc(COc2ccc(-c3ccn[nH]3)nc2)c1F (single isomer, unassigned) [Example 71-46] | 1300 nM | 620 nM | 19 nM | 12 nM | 240 nM | 3.6 h | – | – | – |
| CC(C)(OCCCCCCCOc1ccc(-c2ccn[nH]2)nc1)C(=O)O [Example 15-1, 2-Methyl-2-[7-[[6-(1H-pyrazol-5-yl)-3-pyridinyl]oxy]heptoxy]propanoic Acid] | 2900 nM | 1000 nM | – | 18 nM | – | 2.4 h | 120 nM | stronger inhibitory activities | 220 nM |
| O=C(O)C1CCCN(S(=O)(=O)c2cccc(COc3ccc(-c4ccn[nH]4)nc3)c2)C1 (stereo not shown) [Example 22-9] | – | – | – | 15 nM | – | – | 45 nM | stronger inhibitory activities | 180 nM |
| O=C(O)C1(F)CCN(S(=O)(=O)c2cccc(COc3ccc(-c4ccn[nH]4)nc3)c2)C1 (stereo not shown) [Example 22-11] | – | – | – | 15 nM | – | – | 28 nM | stronger inhibitory activities | 700 nM |
| CC(C)(COc1cc(COc2ccc(-c3ccn[nH]3)nc2)ccn1)C(=O)O [Example 22-14] | – | – | – | 32 nM | – | – | 70 nM | stronger inhibitory activities | 380 nM |
| O=C(O)C1(OCCCCCCCCOc2ccc(-c3ccn[nH]3)nc2)CCOCC1 [Example 68-1, 4-[8-[[6-(1H-Pyrazol-5-yl)-3-pyridinyl]oxy]octoxy]-4-oxanecarboxylic Acid] | – | – | – | 6.9 nM | – | – | 620 nM | stronger inhibitory activities | 39 nM |
| O=C(O)C1CC1c1cccc(CCOc2ccc(-c3ccn[nH]3)nc2)c1 (stereo not shown) [Example 70-7] | 1400 nM | 2900 nM | 50 nM | 16 nM | 320 nM | – | – | – | – |
| O=C(O)[C@@H]1C[C@@H]1c1ccc(CCOc2ccc(-c3ccn[nH]3)nc2)cc1 [Example 70-10-1] | 2300 nM | 3300 nM | 160 nM | 6.4 nM | 120 nM | – | – | – | – |
| O=C(O)C1(OCCCCCCCOc2ccc(-c3ccn[nH]3)nc2)COC1 [Example 71-6] | 370 nM | 1200 nM | 230 nM | 11 nM | 100 nM | – | – | – | – |
| O=C(O)C1(OCCCCCCCOc2ccc(-c3ccn[nH]3)nc2)CCC1 [Example 72-2] | 2500 nM | 510 nM | 120 nM | 4.7 nM | 97 nM | 2.4 h | – | – | – |
| O=C(O)C1(CCCCCCCCOc2ccc(-c3ccn[nH]3)nc2)COC1 [Example 72-3] | 3800 nM | 1500 nM | 130 nM | 4 nM | 43 nM | 1.4 h | – | – | – |
| O=C(O)C1(CCCCCCCCOc2ccc(-c3ccn[nH]3)nc2)CS(=O)(=O)C1 [Example 73-1, 1,1-Dioxo-3-[8-[6-(1H-pyrazol-5-yl)pyridin-3-yl]oxyoctyl]thietane-3-carboxylic Acid] | 2300 nM | 660 nM | 160 nM | 1.7 nM | 12 nM | – | – | – | – |
| O=C(O)C1CC1c1cc(CCOc2ccc(-c3ccn[nH]3)nc2)ccc1F (stereo not shown) [Example 74-2] | 280 nM | 2300 nM | 53 nM | 20 nM | 130 nM | – | – | – | – |
| O=C(O)[C@H]1C[C@@H]1c1cccc(CCOc2ccc(-c3ccn[nH]3)nc2)c1F [Example 74-4] | 480 nM | 2300 nM | 82 nM | 4.4 nM | 58 nM | 3.5 h | – | – | – |
| O=C(O)[C@@H]1C[C@H]1c1cccc(CCOc2ccc(-c3ccn[nH]3)nc2)c1F [Example 74-5] | 3000 nM | 5000 nM | 88 nM | 9.1 nM | 80 nM | – | – | – | – |
